# Test system: subjects with moderately to severely active RA who have an inadequate response to methotrexate (MTX)
# Assay: Study 1 (add-on to MTX) - Aspartate Aminotransferase (AST) levels
# Type: in vivo, human
# Conditions: 24 weeks results
# Procedure: Double-blind, placebo-controlled add on study in subjects with moderately to severely active RA who have an inadequate response to methotrexate (MTX) (oral or parenteral).
# 595 subjects randomized to one of 6 dose regimens of Compound 1 (dosed as [Compound 1:HCl:3H2O]) (3 dose levels administered either once or twice daily) or placebo on top of each subject's stable dose of MTX.
# Compound 1 (dosed as [Compound 1:HCl:3H2O]) is dosed for twelve weeks once daily (q.d.) (50 mg, 100 mg or 200 mg) or twice daily (b.i.d.) (25 mg, 50 mg or 100 mg); or placebo.
# At Week 12, the subjects on placebo who have not achieved 20% improvement in swollen joint count (SJC66) and tender joint count (TJC68) are re-randomized automatically to receive Compound 1 (dosed as a [Compound 1:HCl:3H2O]) either at 100 mg q.d. or 50 mg b.i.d. doses in a blinded fashion; subjects on 50 mg q.d. who have not achieved 20% improvement in SJC66 and TJC68 will be assigned to 100 mg q.d. and subjects on 25 mg b.i.d. that have not achieved a 20% improvement in SJC66 and TJC68 will be assigned to 50 mg b.i.d. Subjects who switch treatment at week 12 are handled as if they discontinued at week 12 for the purpose of statistical analysis, whereas subjects in the other groups will maintain their randomized treatment until Week 24.
# AST levels determination is available at Quest Diagnostics, Clinical Trials, Quest House, 125-135 Staines Road, Hounslow, Middlesex, TW3 3JB, United Kingdom under Catalogue n#84450. For Study 3, the data are obtained at BARC Europe, 3B,Industrie Park, Zwijnaarde, B-9052 Ghent, Belgium.
# AST catalyzes the transamination of aspartate and 2-oxoglutarate, forming L-glutamate and oxalacetate. The oxalacetate is reduced to L-malate by malate dehydrogenase, whilst NADH is converted to NAD+, measured spectrophotometrically. Guidelines for the AST value have been issued by the association for Clinical Biochemistry and Laboratory Medicine, 130-132 Tooley Street LONDON SE1 2TU, united Kingdom, wherein the AST value should be below 34 U/l in Female and below 45 U/L in male. As disclosed in the respective study protocols for Study 1 or 2, at week 12, depending on the outcome of their treatment, the subjects may be continued in their initial treatment course, or reassigned to another treatment group in a randomized blinded fashion until week 24. Therefore, the number of subjects (N) for the period of either 12 weeks, or 24 weeks is provided to reflect this redistribution at week 12.
# [1] = from 25 mg b.i.d. to 50 mg b.i.d. at 12 weeks, week 1
# [2] = from 25 mg b.i.d. to 50 mg b.i.d. at 12 weeks, week 2
# [3] = from 25 mg b.i.d. to 50 mg b.i.d. at 12 weeks, week 4
# [4] = from 25 mg b.i.d. to 50 mg b.i.d. at 12 weeks, week 8
# [5] = from 25 mg b.i.d. to 50 mg b.i.d. at 12 weeks, week 12
# [6] = from 25 mg b.i.d. to 50 mg b.i.d. at 12 weeks, week 16
# [7] = from 25 mg b.i.d. to 50 mg b.i.d. at 12 weeks, week 20
# [8] = from 25 mg b.i.d. to 50 mg b.i.d. at 12 weeks, week 24
# [9] = from 50 mg q.d. to 100 mg q.d. at 12 weeks, week 1
# [10] = from 50 mg q.d. to 100 mg q.d. at 12 weeks, week 2
# [11] = from 50 mg q.d. to 100 mg q.d. at 12 weeks, week 4
# [12] = from 50 mg q.d. to 100 mg q.d. at 12 weeks, week 8
# [13] = from 50 mg q.d. to 100 mg q.d. at 12 weeks, week 12
# [14] = from 50 mg q.d. to 100 mg q.d. at 12 weeks, week 16
# [15] = from 50 mg q.d. to 100 mg q.d. at 12 weeks, week 20
# [16] = from 50 mg q.d. to 100 mg q.d. at 12 weeks, week 24
# [17] = placebo switched to 50 mg b.i.d. at week 12, week 16
# [18] = placebo switched to 50 mg b.i.d. at week 12, week 20
# [19] = placebo switched to 50 mg b.i.d. at week 12, week 24
# [20] = placebo switched to 100 mg q.d. at week 12, week 16
# [21] = placebo switched to 100 mg q.d. at week 12, week 20
# [22] = placebo switched to 100 mg q.d. at week 12, week 24
structure (smiles),measurement,setting,value
"O=C(Nc1nc2cccc(-c3ccc(CN4CCS(=O)(=O)CC4)cc3)n2n1)C1CC1 [Compound 1, cyclopropanecarboxylic acid {5-[4-(1,1-dioxo-thiomorpholin-4-ylmethyl)-phenyl]-[1,2,4]triazolo[1,5-a]pyridin-2-yl}-amide]",Study 1 - AST Mean CFB,"continued 200 mg q.d., week 16",6.8 IU/L
same,Study 1 - AST Mean percentage CFB,"continued 200 mg q.d., week 16",36.8%
same,Study 1 - AST Mean CFB,"continued 200 mg q.d., week 20",4.0 IU/L
same,Study 1 - AST Mean percentage CFB,"continued 200 mg q.d., week 20",23.3%
same,Study 1 - AST Mean CFB,"continued 200 mg q.d., week 24",5.2 IU/L
same,Study 1 - AST Mean percentage CFB,"continued 200 mg q.d., week 24",30.6%
same,Study 1 - AST Mean CFB,[1],−5.0 IU/L
same,Study 1 - AST Mean percentage CFB,[1],−12.5%
same,Study 1 - AST Mean CFB,[2],−2.3 IU/L
same,Study 1 - AST Mean percentage CFB,[2],−0.7%
same,Study 1 - AST Mean CFB,[3],−2.9 IU/L
same,Study 1 - AST Mean percentage CFB,[3],−2.7%
same,Study 1 - AST Mean CFB,[4],−4.1 IU/L
same,Study 1 - AST Mean percentage CFB,[4],−7.2%
same,Study 1 - AST Mean CFB,[5],−1.0 IU/L
same,Study 1 - AST Mean percentage CFB,[5],4.5%
same,Study 1 - AST Mean CFB,[6],−3.3 IU/L
same,Study 1 - AST Mean percentage CFB,[6],−2.3%
same,Study 1 - AST Mean CFB,[7],−0.6 IU/L
same,Study 1 - AST Mean percentage CFB,[7],8.2%
same,Study 1 - AST Mean CFB,[8],0.6 IU/L
same,Study 1 - AST Mean percentage CFB,[8],14.2%
same,Study 1 - AST Mean CFB,[9],0.3 IU/L
same,Study 1 - AST Mean percentage CFB,[9],5.0%
same,Study 1 - AST Mean CFB,[10],0.0 IU/L
same,Study 1 - AST Mean percentage CFB,[10],3.4%
same,Study 1 - AST Mean CFB,[11],−0.5 IU/L
same,Study 1 - AST Mean percentage CFB,[11],3.6%
same,Study 1 - AST Mean CFB,[12],−0.4 IU/L
same,Study 1 - AST Mean percentage CFB,[12],3.0%
same,Study 1 - AST Mean CFB,[13],0.1 IU/L
same,Study 1 - AST Mean percentage CFB,[13],4.2%
same,Study 1 - AST Mean CFB,[14],−0.9 IU/L
same,Study 1 - AST Mean percentage CFB,[14],−0.2%
same,Study 1 - AST Mean CFB,[15],0.4 IU/L
same,Study 1 - AST Mean percentage CFB,[15],4.9%
same,Study 1 - AST Mean CFB,[16],−1.7 IU/L
same,Study 1 - AST Mean percentage CFB,[16],−2.5%
same,Study 1 - AST Mean CFB,[17],2.1 IU/L
same,Study 1 - AST Mean percentage CFB,[17],14.9%
same,Study 1 - AST Mean CFB,[18],−0.1 IU/L
same,Study 1 - AST Mean percentage CFB,[18],1.9%
same,Study 1 - AST Mean CFB,[19],3.5 IU/L
same,Study 1 - AST Mean percentage CFB,[19],19.7%
same,Study 1 - AST Mean CFB,[20],1.3 IU/L
same,Study 1 - AST Mean percentage CFB,[20],1.0%
same,Study 1 - AST Mean CFB,[21],1.2 IU/L
same,Study 1 - AST Mean percentage CFB,[21],9.8%
same,Study 1 - AST Mean CFB,[22],3.2 IU/L
same,Study 1 - AST Mean percentage CFB,[22],23.1%

# — US20180200257A1, “METHODS FOR THE TREATMENT OF INFLAMMATORY DISORDERS” (Galapagos NV, priority 2015, published 2018)
